Assay results taken from ChEMBL document CHEMBL5052843, “Inhibitors of apol1 and methods of using same” (2020).

Assays:
Apolipoprotein L1 = Apolipoprotein L1 (Homo sapiens, UniProt O14791); assay: Inhibition of APOL1 G1 variant in human HEK293-T-REx cells measured by Thallium assay; assay type: cell-based
[1] = system: Trypanosoma brucei brucei; assay: Antitrypanosomal activity against Trypanosoma brucei brucei assessed as trypanosome lysis using recombinant APOL1 protein G1 variant and measured by Alamar blue based fluorescene assay; assay type: functional, organism-based

| Compound | IC50 (Apolipoprotein L1) [nM] | IC50 [1] [nM] |
| --- | --- | --- |
| N#Cc1cc(F)cc2c(CCC(=O)N[C@@H]3C(=O)NC[C@H]3O)c(-c3ccc(F)cc3)[nH]c12 | < 250 | < 250 |
| O=C(CCc1c(-c2ccc(F)cc2)[nH]c2c(C(F)F)cc(F)cc12)N[C@@H]1C(=O)NC[C@H]1O | < 250 |  |
| O=C1C[C@@H](NC(=O)CCc2c(-c3ccc(F)cc3)[nH]c3c(F)cc(F)cc23)C(=O)N1 | 250 | 250 |
| O=C(CCc1c(-c2ccc(F)cc2)[nH]c2c(Cl)cccc12)N[C@@H]1C(=O)NC[C@H]1O | < 250 | < 250 |
| Cc1cc(F)c2[nH]c(-c3ccc(F)cc3)c(CCC(=O)N[C@H]3CCNC3=O)c2c1 | 250 |  |
| O=C(CCc1c(-c2ccc(OC(F)F)cc2)[nH]c2c(F)cc(F)cc12)N[C@H]1CCNC1=O | < 250 | < 250 |
| C=Cc1cccc2c(CCC(=O)N[C@@H]3C(=O)NC[C@H]3O)c(-c3ccccc3)[nH]c12 | < 250 |  |
| COc1ccc2[nH]c(-c3ccc(F)cc3)c(CCC(=O)N[C@H]3CCNC3=O)c2c1 | > 1000 |  |
| CC(C)c1cccc2c(CCC(=O)N[C@@H]3C(=O)NC[C@H]3O)c(-c3ccccc3)[nH]c12 | 250 |  |
| O=C(CCc1c(-c2ccc(F)cc2)[nH]c2c(F)cc(F)cc12)N[C@H]1C(=O)NC[C@H]1O | 250 |  |
| Cc1cccc2c(CCC(=O)N[C@@H]3C(=O)NC[C@H]3O)c(-c3ccc(F)cc3)[nH]c12 | < 250 |  |
| O=C(CCc1c(-c2ccc(F)cc2)[nH]c2cc(O)ccc12)N[C@H]1C(=O)NC[C@@H]1O | > 1000 |  |
| C[C@@H](Cc1c(-c2ccc(F)cc2)[nH]c2c(F)cc(F)cc12)C(=O)N[C@@H]1C(=O)NC[C@H]1O | 250 |  |
| O=C(CCc1c(-c2ccc(F)cc2)[nH]c2ccccc12)N[C@H]1C(=O)NC[C@@H]1O | > 1000 |  |
| O=C(CCc1c(-c2ccc(F)cc2)[nH]c2c(F)cc(F)cc12)N[C@H]1C[C@H](CF)NC1=O | > 1000 |  |
| Cc1ccc(-c2[nH]c3c(F)cc(F)cc3c2CCC(=O)N[C@H]2CCNC2=O)cc1 | < 250 |  |
| CC(C)(O)c1cccc2c(CCC(=O)N[C@@H]3C(=O)NC[C@H]3O)c(-c3ccccc3)[nH]c12 | 250 |  |
| O=C(N[C@@H]1C(=O)NC[C@H]1O)[C@H](O)Cc1c(-c2ccc(F)cc2)[nH]c2c(F)cc(F)cc12 | > 1000 |  |
| C=C(C)c1cccc2c(CCC(=O)N[C@@H]3C(=O)NC[C@H]3O)c(-c3ccccc3)[nH]c12 | 250 |  |
| COc1cc(F)cc2c(CCC(=O)N[C@H]3CCNC3=O)c(-c3ccc(F)cc3)[nH]c12 | 250 |  |
| Cc1c(F)ccc2c(CCC(=O)N[C@@H]3C(=O)NC[C@H]3O)c(-c3ccc(F)cc3)[nH]c12 | < 250 |  |

| Compound | IC50 (Apolipoprotein L1) [nM] | IC50 [1] [nM] |
| --- | --- | --- |
| O=C(CCc1c(-c2ccccc2)[nH]c2c(Cl)cc(F)cc12)N[C@@H]1C(=O)NC[C@H]1O | < 250 |  |
| COc1cccc2c(CCC(=O)N[C@H]3CCNC3=O)c(-c3ccc(F)cc3)[nH]c12 | > 1000 |  |
| CC(=O)O[C@@H]1CNC(=O)[C@H]1NC(=O)CCc1c(-c2ccc(F)cc2)[nH]c2c(F)cc(F)cc12 | > 1000 |  |
| C[C@H]1CNC(=O)[C@H]1NC(=O)CCc1c(-c2ccc(F)cc2)[nH]c2c(F)cc(F)cc12 | > 1000 |  |
| O=C(CCc1c(-c2ccc(F)cc2)[nH]c2c(F)cc(F)cc12)N[C@H]1C(=O)NC[C@@H]1O | 250 |  |
| O=C(CCc1c(-c2ccc(OC(F)F)cc2)[nH]c2ccccc12)N[C@@H]1C(=O)NC[C@H]1O | < 250 |  |
| O=C(CCc1c(-c2ccccc2)[nH]c2c(Cl)cccc12)N[C@@H]1C(=O)NC[C@H]1O | < 250 |  |
| O=C(CCc1c(-c2ccc(Cl)cc2)[nH]c2c(Cl)cccc12)N[C@@H]1C(=O)NC[C@H]1O | < 250 |  |
| O=C(CCc1c(-c2ccccc2)[nH]c2c(C3CC3)cccc12)N[C@@H]1C(=O)NC[C@H]1O | < 250 |  |
| O=C(CCc1c(-c2ccc(F)cc2)[nH]c2c(F)c(F)c(F)cc12)N[C@@H]1C(=O)NC[C@H]1O | < 250 |  |
| O=C(CCc1c(-c2ccc(F)cc2)[nH]c2c(F)cc(Cl)cc12)N[C@@H]1CCNC1=O | 250 |  |
| Cc1cc(F)cc2c(CCC(=O)N[C@H]3CCNC3=O)c(-c3ccc(F)cc3)[nH]c12 | < 250 |  |
| O=C(CCc1c(-c2ccccc2)[nH]c2c(F)cc(F)cc12)N[C@H]1CCNC1=O | < 250 |  |
| CC(CC(=O)N[C@@H]1C(=O)NC[C@H]1O)c1c(-c2ccc(F)cc2)[nH]c2c(F)cc(F)cc12 (stereo not given in full) | > 1000 |  |
| Cc1cc(F)ccc1-c1[nH]c2ccccc2c1CCC(=O)N[C@@H]1C(=O)NC[C@H]1O | 250 |  |
| O=C(CCc1c(-c2ccc(F)cc2)[nH]c2ccccc12)N[C@H]1C(=O)NC[C@H]1O | 250 |  |
| CC(CC(=O)N[C@H]1CCNC1=O)c1c(-c2ccc(F)cc2)[nH]c2c(F)cc(F)cc12 (stereo not given in full) | > 1000 |  |
| O=C(CCc1c(-c2ccc(F)cc2)[nH]c2c(C(F)(F)F)cccc12)N[C@@H]1C(=O)NC[C@H]1O | < 250 |  |
| O=C(CCc1c(-c2ccccc2)[nH]c2c(C3CCOC3)cccc12)N[C@@H]1C(=O)NC[C@H]1O (stereo not given in full) | 250 |  |
| O=C(CCc1c(-c2ccc(F)cc2)[nH]c2ccc(Cl)cc12)N[C@@H]1C(=O)NC[C@H]1O | < 250 |  |
| O=C(CSc1c(-c2ccc(F)cc2)[nH]c2ccccc12)N[C@@H]1C(=O)NC[C@H]1O | < 250 |  |

| Compound | IC50 (Apolipoprotein L1) [nM] | IC50 [1] [nM] |
| --- | --- | --- |
| Cc1ccc(-c2[nH]c3c(F)cc(F)cc3c2CCC(=O)N[C@@H]2CCNC2=O)cc1 | < 250 |  |
| Cc1ccc(-c2[nH]c3c(F)cc(F)cc3c2CCC(=O)N[C@@H]2C(=O)NC[C@H]2O)cc1 | < 250 |  |
| Cc1cccc2c(CCC(=O)N[C@@H]3C(=O)NC[C@H]3O)c(-c3ccccc3)[nH]c12 | < 250 |  |
| O=C(CCc1c(-c2ccc(F)cc2)[nH]c2c(F)cc(OC(F)F)cc12)N[C@@H]1C(=O)NC[C@H]1O | < 250 |  |
| C[C@@H](Cc1c(-c2ccc(F)cc2)[nH]c2c(F)cc(F)cc12)C(=O)N[C@H]1CCNC1=O | > 1000 |  |
| O=C(CCc1c(-c2ccc(F)cc2)[nH]c2c(F)cc(F)cc12)NC1CC2(CC2)NC1=O (stereo not given) | > 1000 |  |
| N#Cc1cccc(-c2[nH]c3ccc(F)cc3c2CCC(=O)N[C@H]2CCNC2=O)c1 | > 1000 |  |
| O=C(CCc1c(-c2ccc(F)cc2)[nH]c2c(F)cc(F)cc12)N[C@H]1C[C@@H](CF)NC1=O | > 1000 |  |
| O=C(CCc1c(-c2ccc(F)cc2)[nH]c2ccccc12)N[C@@H]1C(=O)NC[C@@H]1O | > 1000 |  |
| O=C1NC[C@@H](O)[C@@H]1NC(=O)[C@@H](O)Cc1c(-c2ccc(F)cc2)[nH]c2c(F)cc(F)cc12 | > 1000 |  |
| O=C(CCc1c(-c2ccccc2)[nH]c2c(F)cccc12)N[C@H]1CCNC1=O | 250 |  |
| O=C(CCc1c(-c2ccccc2)[nH]c2c(C3=CCOC3)cccc12)N[C@@H]1C(=O)NC[C@H]1O | > 1000 |  |
| Cc1c(F)ccc2c(CCC(=O)N[C@@H]3C(=O)NC[C@H]3O)c(-c3ccccc3)[nH]c12 | < 250 |  |
| O=C(CCc1c(-c2ccc(F)cc2)[nH]c2c(F)cc(Cl)cc12)N[C@H]1CCNC1=O | < 250 |  |
| O=C(CCc1c(-c2ccccc2)[nH]c2c(C(F)(F)F)cc(F)cc12)N[C@@H]1C(=O)NC[C@H]1O | < 250 |  |
| O=C(CCc1c(-c2ccc(F)cc2)[nH]c2c(F)c(F)ccc12)N[C@H]1CCNC1=O | 250 |  |
| O=C(CCc1c(-c2ccc(F)cc2)[nH]c2c(Cl)cc(F)cc12)N[C@H]1CCNC1=O | < 250 |  |
| O=C(CCc1c(-c2ccc(F)cc2)[nH]c2cc(F)c(F)cc12)N[C@@H]1C(=O)NC[C@H]1O | < 250 |  |
| O=C(N[C@H]1CCNC1=O)[C@H](O)Cc1c(-c2ccccc2)[nH]c2c(F)cc(F)cc12 | > 1000 |  |
